Source: PubChem BioAssay AID1845203 (Molecular Pharmacology Branch, DTP, NCI, 2023)

System: G-401 tumor spheroids, viability % test/control
Test: Anticancer human tumor G-401 cell line growth inhibition;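 also: spheroids exposed to compound for 7 days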;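 as to viability, T/C: 100% = DMSO vehicle-treated spheroids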
Conditions: spheroids with HUVEC and MSC; for IC50: curve of first compound; for viability, T/C: stronger effect = lower value
Method in brief: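 Single agents and combinations were tested on spheroids built from tumor cells plus HUVEC and hMSC, at half-log dilutions starting at or near clinical Cmax, else 10 microM; final DMSO 0.25% (v/v).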

[1] = second compound 0.003 µM, first compound 0.0316 µM
[2] = second compound 0.003 µM, first compound 0.1 µM
[3] = second compound 0.003 µM, first compound 0.316 µM
[4] = second compound 0.003 µM, first compound 1 µM
[5] = second compound 0.003 µM, first compound 3.16 µM
[6] = second compound 0.003 µM, first compound 10 µM
[7] = second compound 0.00949 µM, first compound 0.0316 µM
[8] = second compound 0.00949 µM, first compound 0.1 µM
[9] = second compound 0.00949 µM, first compound 0.316 µM
[10] = second compound 0.00949 µM, first compound 1 µM
[11] = second compound 0.00949 µM, first compound 3.16 µM
[12] = second compound 0.00949 µM, first compound 10 µM
[13] = second compound 0.03 µM, first compound 0.0316 µM
[14] = second compound 0.03 µM, first compound 0.1 µM
[15] = second compound 0.03 µM, first compound 0.316 µM
[16] = second compound 0.03 µM, first compound 1 µM
[17] = second compound 0.03 µM, first compound 3.16 µM
[18] = second compound 0.03 µM, first compound 10 µM
[19] = second compound 0.0949 µM, first compound 0.0316 µM
[20] = second compound 0.0949 µM, first compound 0.1 µM
[21] = second compound 0.0949 µM, first compound 0.316 µM
[22] = second compound 0.0949 µM, first compound 1 µM
[23] = second compound 0.0949 µM, first compound 3.16 µM
[24] = second compound 0.0949 µM, first compound 10 µM
[25] = second compound 0.3 µM, first compound 0.0316 µM
[26] = second compound 0.3 µM, first compound 0.1 µM
[27] = second compound 0.3 µM, first compound 0.316 µM
[28] = second compound 0.3 µM, first compound 1 µM
[29] = second compound 0.3 µM, first compound 3.16 µM
[30] = second compound 0.3 µM, first compound 10 µM

SMILES	IC50 (second compound 0.003 µM) [nM]	IC50 (second compound 0.00949 µM) [nM]	IC50 (second compound 0.03 µM) [nM]	IC50 (second compound 0.0949 µM) [nM]	IC50 (second compound 0.3 µM) [nM]	viability, T/C [1] [%]	viability, T/C [2] [%]	viability, T/C [3] [%]	viability, T/C [4] [%]	viability, T/C [5] [%]	viability, T/C [6] [%]	viability, T/C [7] [%]	viability, T/C [8] [%]	viability, T/C [9] [%]	viability, T/C [10] [%]	viability, T/C [11] [%]	viability, T/C [12] [%]	viability, T/C [13] [%]	viability, T/C [14] [%]	viability, T/C [15] [%]	other results
CC(C)n1c(=O)n(C)c2cnc3cc(F)c(-c4ccc(OCCCN5CCCCC5)nc4)cc3c21 + CC[C@@]1(O)C(=O)OCc2c1cc1n(c2=O)Cc2cc3c(CN(C)C)c(O)ccc3nc2-1	< 31.6	< 31.6	< 31.6	< 31.6	< 31.6	18.3	20.1	19.8	22.7	16.1	10.8	12.9	15.5	14.9	14.6	12.9	7.82	13.8	11.8	13.9	viability, T/C [16]: 15.1%; viability, T/C [17]: 9.27%; viability, T/C [18]: 4.89%; viability, T/C [19]: 10.2%; viability, T/C [20]: 9.71%; viability, T/C [21]: 10.3%; viability, T/C [22]: 12.7%; viability, T/C [23]: 8.85%; viability, T/C [24]: 4.85%; viability, T/C [25]: 5.28%; viability, T/C [26]: 5.27%; viability, T/C [27]: 5.71%; viability, T/C [28]: 6.45%; viability, T/C [29]: 6.65%; viability, T/C [30]: 2.79%
CC1COCCN1c1cc(-c2ccnn2C)c2ccnc(-c3ccn[nH]3)c2n1 (stereo not given) + CC[C@@]1(O)C(=O)OCc2c1cc1n(c2=O)Cc2cc3c(CN(C)C)c(O)ccc3nc2-1	< 31.6	< 31.6	< 31.6	< 31.6	< 31.6	38.2	17.3	13.4	13.5	15	15.1	16.6	11.1	9.94	10.2	12.7	14.6	12.9	11.1	10.6	viability, T/C [16]: 10%; viability, T/C [17]: 11.1%; viability, T/C [18]: 12.1%; viability, T/C [19]: 10.7%; viability, T/C [20]: 8.92%; viability, T/C [21]: 8.64%; viability, T/C [22]: 8.17%; viability, T/C [23]: 8.68%; viability, T/C [24]: 9.11%; viability, T/C [25]: 6.09%; viability, T/C [26]: 5.5%; viability, T/C [27]: 5.49%; viability, T/C [28]: 4.45%; viability, T/C [29]: 4.16%; viability, T/C [30]: 3.75%
COc1cc(C)[nH]c(=O)c1CN1CCc2c(Cl)cc(C(OC)C3COC3)c(Cl)c2C1=O (stereo not given) + CC[C@@]1(O)C(=O)OCc2c1cc1n(c2=O)Cc2cc3c(CN(C)C)c(O)ccc3nc2-1	130	< 31.6	< 31.6	< 31.6	< 31.6	85.9	52.9	37.2	31.9	29.3	23.8	49.9	44.4	26.1	23.6	23.3	19.6	16	13.7	10.3	viability, T/C [16]: 11.8%; viability, T/C [17]: 12%; viability, T/C [18]: 9.84%; viability, T/C [19]: 7.14%; viability, T/C [20]: 7.77%; viability, T/C [21]: 7.29%; viability, T/C [22]: 6.9%; viability, T/C [23]: 6.42%; viability, T/C [24]: 6.61%; viability, T/C [25]: 5.24%; viability, T/C [26]: 5.58%; viability, T/C [27]: 5.45%; viability, T/C [28]: 5.13%; viability, T/C [29]: 5.04%; viability, T/C [30]: 4.44%
COc1ccc([C@@H](O)c2cc(-c3ncnc4cc(N5CCOCC5)ccc34)c(F)cc2Cl)nn1 + CC[C@@]1(O)C(=O)OCc2c1cc1n(c2=O)Cc2cc3c(CN(C)C)c(O)ccc3nc2-1	864	< 31.6	< 31.6	< 31.6	< 31.6	84.4	84.2	66.6	48.3	23.6	9.59	43.5	41.3	40.5	26.8	11.7	5.69	16.9	15.9	11.2	viability, T/C [16]: 8.51%; viability, T/C [17]: 5.48%; viability, T/C [18]: 3.09%; viability, T/C [19]: 7.39%; viability, T/C [20]: 7.68%; viability, T/C [21]: 6.35%; viability, T/C [22]: 5.25%; viability, T/C [23]: 3.31%; viability, T/C [24]: 1.7%; viability, T/C [25]: 4.49%; viability, T/C [26]: 4.63%; viability, T/C [27]: 3.66%; viability, T/C [28]: 2.59%; viability, T/C [29]: 0.94%; viability, T/C [30]: 0.33%
Cc1cc(C)c(CNC(=O)c2cc(-c3ccc(CN4CCOCC4)cc3)cc3c2cnn3C2CCCC2)c(=O)[nH]1 + CC[C@@]1(O)C(=O)OCc2c1cc1n(c2=O)Cc2cc3c(CN(C)C)c(O)ccc3nc2-1	4210	< 31.6	< 31.6	< 31.6	< 31.6	79.7	81.4	75.1	75.1	58.2	24.3	47.1	39.4	32.9	33.2	22.1	14.2	13.4	12.7	11	viability, T/C [16]: 9.58%; viability, T/C [17]: 7.81%; viability, T/C [18]: 7.38%; viability, T/C [19]: 7.91%; viability, T/C [20]: 8.43%; viability, T/C [21]: 7.6%; viability, T/C [22]: 6.51%; viability, T/C [23]: 5.89%; viability, T/C [24]: 5.15%; viability, T/C [25]: 5.19%; viability, T/C [26]: 5.25%; viability, T/C [27]: 4.23%; viability, T/C [28]: 4.83%; viability, T/C [29]: 4.3%; viability, T/C [30]: 4.73%
[2H]c1nc(C)nc([2H])c1-c1cc(NC[C@@H](C)c2cccc3c(C(=O)NC)ccnc23)ncn1 + CC[C@@]1(O)C(=O)OCc2c1cc1n(c2=O)Cc2cc3c(CN(C)C)c(O)ccc3nc2-1	> 10000	< 31.6	< 31.6	< 31.6	< 31.6	83.5	94.3	85.3	82.5	75.9	81	45.4	47.3	47.1	40.1	38.9	30.1	14.6	17.2	14	viability, T/C [16]: 16.9%; viability, T/C [17]: 15.4%; viability, T/C [18]: 12.3%; viability, T/C [19]: 7.88%; viability, T/C [20]: 8.52%; viability, T/C [21]: 8.28%; viability, T/C [22]: 7.66%; viability, T/C [23]: 7.94%; viability, T/C [24]: 6.94%; viability, T/C [25]: 4.71%; viability, T/C [26]: 4.82%; viability, T/C [27]: 5.34%; viability, T/C [28]: 5%; viability, T/C [29]: 4.69%; viability, T/C [30]: 5.48%
